Experimental data: patent US5858410A, “Pharmaceutical nanosuspensions for medicament administration as systems with increased saturation solubility and rate of solution” (Medac Gesellschaft Fur Klinische Spezialpraparate, priority 1994, dated 1999)

Assay: Particle size of suspensions by PCS / laser diffractometer (LD)
Type: physicochemical
Excerpt: Wet grinding has been employed as a further grinding technique (Sandell, E., Grundriss der Galenischen Pharmazie [Principles of galenical pharmacy], Govi-Verlag GmbH, Frankfurt am Main, 1962), for example using a Premier Mill (Sandell, loc. cit.) or a ball or pearl mill (Hagers Handbuch der pharmazeutischen Praxis [Hagers handbook of pharmaceutical practice], Springer-Verlag, Berlin, 1925). Although a main population of particles in the nanometer range results when a pearl mill is used, a significant proportion of particles larger than 1 μm is still present. […] RNXP 22 was ground (Dispermat) in a pearl mill without addition of surfactant (FIG. 2: A) and with addition of 3% Tween 80 (FIG. 2: A+surfactant). The 50% diameter of the surfactant-free sample is already approx. 2 μm, i.e. 50% of the particles are >2 μm. Some of these micrometer particles can be attributed to agglomeration. As described in the literature (Sandell, loc. cit.; P. H. List, Arzneiformenlehre [Drug forms], Wissenschaftliche Verlagsgesellschaft mbH Stuttgart, 1976; Sucker, H., Speiser, P., Fuchs, P., Pharmazeutische Technologie [Pharmaceutical technology], George Thieme Verlag Stuttgart, 1978; Munzel, K., Buchi, J., Schultz, O.-E., Galenisches Praktikum [Practical galenics], Wissenschaftliche Verlagsgesellschaft mbH Stuttgart, 1959), aggregation in suspensions can be prevented by addition of surfactants (Tween 80, Pluronic F 68) or generally stabilizers (e.g. polyvinylpyrrolidone--PVP, Pluronic F 68). […] As a rule, this is also recommended by manufacturers of mills (e.g. Dyno-Mill, A. Bachoffen AG Maschinenfabrik). Surfactant-stabilized microparticles have also been patented (U.S. Pat. No. 5,246,707), it also being possible for these additionally to comprise iron particles within the microparticles in order to allow location of the particles via magnetic fields.
Another preparation method which has been known for a long time is "via humida paratum", precipitation by pouring a solution of the active compound into a non-solvent (Hagers Handbuch der pharmazeutischen Praxis [Hagers handbook of pharmaceutical practice], Springer-Verlag, Berlin, 1925). By pouring into the non-solvent, the Ostwald Mie range is rapidly passed through and a very fine precipitate separates out. The particles which have precipitated out likewise have a significant proportion in the micrometer range. […] The drug was dissolved in ethanol (3%, 20 ml) and the solution poured into 100 ml of an aqueous surfactant solution (1.2% Pluronic F68). The end of the measuring range is 80 μm, and a large fraction between approx. 18 μm to 80 μm was detected.
The powdered drug (ground in an air jet, particles up to more than 25 μm) was rubbed in a grinding dish with a concentrated surfactant solution for wetting, and the remaining aqua dest. was then added, while stirring. Alternatively, the drug powder can also be introduced into a surfactant solution by stirring. […] The average particle diameter of the parent suspensions (=suspension with 0 cycles), measured with the laser diffractometer, and of the resulting nanosuspensions by PCS (PI=polydispersity index):
Preparation of the suspension and subsequent homogenization as in example 1. […] To monitor the decrease in the particles also in the size range from 1 μm to several μm as a function of the number of cycles, the samples were analysed with the LD. The results were evaluated by plotting the 99% diameter against the number of cycles (FIG. 6). […]

[1] = ground in an air jet, LD (FIG. 1)

SMILES: C[C@@H]1CN(c2nc(N(CCO)CC(C)(C)O)c3nc(-c4ccccc4)c(N4C[C@@H](C)O[C@@H](C)C4)nc3n2)C[C@H](C)O1 [RMKP 22, 4-[N-(2-hydroxy-2-methylpropyl)-ethanolamine]-2.7-bis(cis-2.6-dimethylmorpholin-4-yl)-6-phenyl-pteridine]
- 50% LD diameter (ground in a pearl mill, surfactant-free sample (FIG. 2: A)): approx. 2 μm
- particles >1 μm [1]: 92%
- particles in the range below 1,000 nm [1]: 8%
- particles smaller than 25 μm [1]: 100%
- effect of surfactant on diameters of the volume distribution (pearl mill, addition of 3% Tween 80 (FIG. 2: A+surfactant)): only a slight reduction in the diameters of the volume distribution
